ChEMBL document CHEMBL4000195, “Design and synthesis of novel 7-aminosubstituted pyrido[2,3-b]pyrazines exhibiting anti-breast cancer activity” (Eur J Med Chem, 2017)
Activity calls are given as the source filed them. The rule behind the calls is not given here.

Assays:
[1] = AUC (0 to 8 hrs) in NOD/SCID mouse at 0.5 mg/kg, ip administered as single dose by LC-MS/MS method; format: ADME, organism-based; parameters: dose 0.5 mg/kg, time < 8 hr, route intraperitoneal; settings: in vivo
[2] = molecular target: Dual specificity mitogen-activated protein kinase kinase 4 (Homo sapiens) (UniProt P45985); test: Inhibition of human wild type partial length MEK4 (S84 to D399 residues) expressed in mammalian expression system at 10 uM by KinomeScan method relative to control
[3] = AUC (0 to 8 hrs) in NOD/SCID mouse at 10 mg/kg, ip administered as single dose by LC-MS/MS method; format: ADME, organism-based; parameters: dose 10 mg/kg, time < 8 hr, route intraperitoneal; settings: in vivo
[4] = molecular target: Receptor tyrosine-protein kinase erbB-2 (Homo sapiens) (UniProt P04626); test: Inhibition of human wild type partial length ERBB2 (K646 to V1225 residues) expressed in mammalian expression system at 10 uM by KinomeScan method relative to control
[5] = molecular target: Phosphatidylinositol 4,5-bisphosphate 3-kinase catalytic subunit alpha isoform (Homo sapiens, UniProt P42336, H1047R); test: Inhibition of PI3Kalpha H1047R mutant (unknown origin) using PIP2 liposomes as substrate in presence of biotin-labeled PIP3 and GST-GRP1-PH by streptavidin-HRP based assays
[6] = molecular target: Serine/threonine-protein kinase 4 (Homo sapiens) (UniProt Q13043); test: Inhibition of human wild type full length MST1 (M1 to F487 residues) expressed in bacterial expression system at 10 uM by KinomeScan method relative to control
[7] = tested on: MCF7; test: Cytotoxicity against human MCF7 cells by MTT assay; format: functional, cell-based
[8] = tested on: Mus musculus; test: In vivo inhibition of Akt phosphorylation at Ser473 residue in NOD/SCID mouse tumor xenografted with HER2-amplified human HCC1954 cells at 10 mg/kg, ip administered once daily for 18 days measured after 1 hr last dose; format: functional, organism-based
[9] = molecular target: Dual specificity tyrosine-phosphorylation-regulated kinase 1A (Rattus norvegicus) (UniProt Q63470); test: Inhibition of rat DYRK1A using myelin basic protein as substrate in presence of [gamma33P]ATP after 30 mins by scintillation counting method
[10] = tested on: Mus musculus; test: In vivo inhibition of Akt phosphorylation at ser-473 residue in NOD/SCID mouse tumor xenografted with HER2-amplified human HCC1954 cells at 10 mg/kg, ip administered once daily for 18 days measured after 1 hr last dose by […]; format: functional, organism-based
[11] = molecular target: Tyrosine-protein kinase ITK/TSK (Homo sapiens) (UniProt Q08881); test: Inhibition of human wild type partial length ITK (R335 to L620 residues) expressed in bacterial expression system at 10 uM by KinomeScan method relative to control
[12] = Tmax in NOD/SCID mouse at 0.5 mg/kg, po administered as single dose by LC-MS/MS method; format: ADME, organism-based; settings: in vivo
[13] = tested on: HCC1954; test: Anti-tumor activity against HER2-amplified human HCC1954 cells xenografted in NOD/SCID mouse assessed as tumor weight at 10 mg/kg, ip administered once daily for 18 days measured after 1 hr last dose (reference value: 0.8 +/- 0.07 g); format: functional
[14] = tested on: T47D; test: Cytotoxicity against human T47D cells at 10 uM by MTT assay; format: functional
[15] = molecular target: Mitogen-activated protein kinase kinase kinase 1 (Homo sapiens) (UniProt Q13233); test: Inhibition of human wild type partial length MAP3K1 (L1202 to W1512 residues) expressed in mammalian expression system at 10 uM by KinomeScan method relative to control
[16] = molecular target: Platelet-derived growth factor receptor beta (Homo sapiens) (UniProt P09619); test: Inhibition of recombinant human GST-tagged PDGFR-beta (557-end residues) transphosphorylation activity expressed in baculovirus infected Sf9 cells using poly[Glu:Tyr] (4:1) as substrate after 60 mins
[17] = molecular target: Tyrosine-protein kinase HCK (Homo sapiens) (UniProt P08631); test: Inhibition of human wild type full length HCK (M22 to P526 residues) expressed in bacterial expression system at 10 uM by KinomeScan method relative to control
[18] = molecular target: Focal adhesion kinase 1 (Homo sapiens) (UniProt Q05397); test: Inhibition of human wild type partial length FAK (D402 to R696 residues) expressed in bacterial expression system at 10 uM by KinomeScan method relative to control
[19] = molecular target: Tyrosine-protein kinase Fyn (Homo sapiens) (UniProt P06241); test: Inhibition of human wild type partial length FYN (T243 to L534 residues) expressed in bacterial expression system at 10 uM by KinomeScan method relative to control
[20] = tested on: Mus musculus; test: Toxicity in NOD/SCID mouse assessed as change in body weight at 10 mg/kg, ip administered once daily for 18 days measured after 1 hr last dose; format: organism-based; settings: in vivo
[21] = molecular target: Mast/stem cell growth factor receptor Kit (Homo sapiens) (UniProt P10721); test: Inhibition of recombinant human GST-tagged KIT (544-end residues) transphosphorylation activity expressed in baculovirus infected Sf9 cells using poly[Glu:Tyr] (4:1) as substrate after 60 mins
[22] = molecular target: Fibroblast growth factor receptor 1 (Homo sapiens) (UniProt P11362); test: Inhibition of human wild type partial length FGFR1 (P357 to V669 residues) expressed in bacterial expression system at 10 uM by KinomeScan method relative to control
[23] = molecular target: Vascular endothelial growth factor receptor 2 (Homo sapiens) (UniProt P35968); test: Inhibition of recombinant human GST-tagged VEGFR-2 (789-end residues) transphosphorylation activity expressed in baculovirus infected Sf9 cells using poly[Glu:Tyr] (4:1) as substrate after 60 mins
[24] = tested on: T47D; test: Cytotoxicity against human T47D cells by MTT assay; format: functional, cell-based
[25] = molecular target: Mitogen-activated protein kinase kinase kinase 4 (Homo sapiens) (UniProt Q9Y6R4); test: Inhibition of human wild type partial length MAP3K4 (G1319 to E1608 residues) expressed in bacterial expression system at 10 uM by KinomeScan method relative to control
[26] = molecular target: Mitogen-activated protein kinase 1 (Homo sapiens) (UniProt P28482); test: Inhibition of human wild type full length ERK2 (M1 to S360 residues) expressed in bacterial expression system at 10 uM by KinomeScan method relative to control
[27] = molecular target: Epidermal growth factor receptor (Homo sapiens) (UniProt P00533); test: Inhibition of human EGFR (R669 to V1011 residues) expressed in bacterial expression system at 10 uM by KinomeScan method relative to control
Sequence of Epidermal growth factor receptor (Homo sapiens) (P00533 whole entry, the tested form may be a part): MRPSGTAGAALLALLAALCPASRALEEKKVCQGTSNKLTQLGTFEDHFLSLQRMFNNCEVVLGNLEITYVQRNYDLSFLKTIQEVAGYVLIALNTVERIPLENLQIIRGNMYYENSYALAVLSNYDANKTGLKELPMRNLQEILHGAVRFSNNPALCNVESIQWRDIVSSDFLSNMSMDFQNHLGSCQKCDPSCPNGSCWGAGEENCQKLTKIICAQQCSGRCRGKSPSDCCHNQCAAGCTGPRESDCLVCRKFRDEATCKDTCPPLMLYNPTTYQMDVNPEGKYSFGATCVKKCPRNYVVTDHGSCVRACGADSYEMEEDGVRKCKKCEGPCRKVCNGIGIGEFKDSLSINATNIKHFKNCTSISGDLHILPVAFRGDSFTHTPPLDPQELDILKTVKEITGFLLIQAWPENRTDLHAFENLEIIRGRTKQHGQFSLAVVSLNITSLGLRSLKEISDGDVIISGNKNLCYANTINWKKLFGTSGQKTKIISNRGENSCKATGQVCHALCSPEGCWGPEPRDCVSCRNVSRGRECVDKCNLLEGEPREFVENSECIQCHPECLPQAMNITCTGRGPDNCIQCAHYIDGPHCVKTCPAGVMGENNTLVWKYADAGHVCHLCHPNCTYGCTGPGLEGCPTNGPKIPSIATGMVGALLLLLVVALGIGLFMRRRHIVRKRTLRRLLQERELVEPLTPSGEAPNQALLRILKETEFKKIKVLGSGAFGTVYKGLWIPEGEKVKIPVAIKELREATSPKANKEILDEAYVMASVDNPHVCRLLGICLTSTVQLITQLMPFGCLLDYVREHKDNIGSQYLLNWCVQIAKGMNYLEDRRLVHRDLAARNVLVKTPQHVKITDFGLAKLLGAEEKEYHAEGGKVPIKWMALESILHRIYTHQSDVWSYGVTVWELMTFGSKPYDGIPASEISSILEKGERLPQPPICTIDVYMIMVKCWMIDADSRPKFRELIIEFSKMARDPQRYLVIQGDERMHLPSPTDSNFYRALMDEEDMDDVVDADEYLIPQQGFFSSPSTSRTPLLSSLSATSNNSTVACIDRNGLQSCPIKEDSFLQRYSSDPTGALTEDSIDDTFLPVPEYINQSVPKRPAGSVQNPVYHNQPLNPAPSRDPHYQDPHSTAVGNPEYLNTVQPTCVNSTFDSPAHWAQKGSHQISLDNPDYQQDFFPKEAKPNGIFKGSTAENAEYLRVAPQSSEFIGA

Sequence of Platelet-derived growth factor receptor beta (Homo sapiens) (P09619 whole entry, the tested form may be a part): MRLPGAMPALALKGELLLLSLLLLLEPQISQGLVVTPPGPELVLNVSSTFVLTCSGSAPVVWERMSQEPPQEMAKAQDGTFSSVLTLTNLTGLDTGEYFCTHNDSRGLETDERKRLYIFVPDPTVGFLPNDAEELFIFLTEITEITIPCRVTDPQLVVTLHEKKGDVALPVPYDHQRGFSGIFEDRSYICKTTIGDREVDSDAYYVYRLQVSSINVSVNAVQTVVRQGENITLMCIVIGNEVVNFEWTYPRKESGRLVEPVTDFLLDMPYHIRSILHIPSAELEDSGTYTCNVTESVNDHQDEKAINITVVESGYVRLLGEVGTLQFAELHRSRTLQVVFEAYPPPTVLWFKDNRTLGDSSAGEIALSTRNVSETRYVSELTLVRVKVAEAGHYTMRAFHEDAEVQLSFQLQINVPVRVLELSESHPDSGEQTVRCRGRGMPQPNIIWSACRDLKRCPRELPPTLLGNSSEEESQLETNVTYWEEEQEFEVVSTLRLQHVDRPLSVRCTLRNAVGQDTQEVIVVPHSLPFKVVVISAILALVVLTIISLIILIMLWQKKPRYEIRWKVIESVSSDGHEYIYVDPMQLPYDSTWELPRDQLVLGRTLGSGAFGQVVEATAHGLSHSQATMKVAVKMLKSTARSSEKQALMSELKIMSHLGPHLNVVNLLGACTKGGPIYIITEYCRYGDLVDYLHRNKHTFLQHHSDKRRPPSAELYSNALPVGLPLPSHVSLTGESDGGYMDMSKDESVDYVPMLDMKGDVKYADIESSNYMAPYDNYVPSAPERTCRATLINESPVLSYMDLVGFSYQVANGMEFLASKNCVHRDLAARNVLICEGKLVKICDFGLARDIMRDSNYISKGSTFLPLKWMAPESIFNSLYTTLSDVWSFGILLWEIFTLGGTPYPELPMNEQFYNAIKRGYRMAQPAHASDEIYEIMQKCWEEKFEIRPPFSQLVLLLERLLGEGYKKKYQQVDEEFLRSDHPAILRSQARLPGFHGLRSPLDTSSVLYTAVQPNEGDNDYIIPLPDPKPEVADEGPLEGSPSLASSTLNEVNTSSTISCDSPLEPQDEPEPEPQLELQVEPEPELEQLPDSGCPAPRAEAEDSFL
Sequence of Mitogen-activated protein kinase 1 (Homo sapiens) (P28482 whole entry, the tested form may be a part): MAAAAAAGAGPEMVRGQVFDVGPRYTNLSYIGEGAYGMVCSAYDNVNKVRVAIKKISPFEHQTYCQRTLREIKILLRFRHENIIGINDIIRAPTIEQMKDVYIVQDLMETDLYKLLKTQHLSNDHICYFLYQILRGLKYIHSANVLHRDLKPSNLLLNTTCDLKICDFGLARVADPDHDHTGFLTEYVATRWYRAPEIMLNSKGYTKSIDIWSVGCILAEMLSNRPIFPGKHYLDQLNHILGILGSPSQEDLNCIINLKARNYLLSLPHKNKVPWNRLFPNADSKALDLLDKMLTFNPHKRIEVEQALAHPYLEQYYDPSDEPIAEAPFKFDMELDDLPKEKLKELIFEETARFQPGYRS
Sequence of Phosphatidylinositol 4,5-bisphosphate 3-kinase catalytic subunit alpha isoform (P42336 whole entry H1047R, the tested form may be a part, canonical isoform): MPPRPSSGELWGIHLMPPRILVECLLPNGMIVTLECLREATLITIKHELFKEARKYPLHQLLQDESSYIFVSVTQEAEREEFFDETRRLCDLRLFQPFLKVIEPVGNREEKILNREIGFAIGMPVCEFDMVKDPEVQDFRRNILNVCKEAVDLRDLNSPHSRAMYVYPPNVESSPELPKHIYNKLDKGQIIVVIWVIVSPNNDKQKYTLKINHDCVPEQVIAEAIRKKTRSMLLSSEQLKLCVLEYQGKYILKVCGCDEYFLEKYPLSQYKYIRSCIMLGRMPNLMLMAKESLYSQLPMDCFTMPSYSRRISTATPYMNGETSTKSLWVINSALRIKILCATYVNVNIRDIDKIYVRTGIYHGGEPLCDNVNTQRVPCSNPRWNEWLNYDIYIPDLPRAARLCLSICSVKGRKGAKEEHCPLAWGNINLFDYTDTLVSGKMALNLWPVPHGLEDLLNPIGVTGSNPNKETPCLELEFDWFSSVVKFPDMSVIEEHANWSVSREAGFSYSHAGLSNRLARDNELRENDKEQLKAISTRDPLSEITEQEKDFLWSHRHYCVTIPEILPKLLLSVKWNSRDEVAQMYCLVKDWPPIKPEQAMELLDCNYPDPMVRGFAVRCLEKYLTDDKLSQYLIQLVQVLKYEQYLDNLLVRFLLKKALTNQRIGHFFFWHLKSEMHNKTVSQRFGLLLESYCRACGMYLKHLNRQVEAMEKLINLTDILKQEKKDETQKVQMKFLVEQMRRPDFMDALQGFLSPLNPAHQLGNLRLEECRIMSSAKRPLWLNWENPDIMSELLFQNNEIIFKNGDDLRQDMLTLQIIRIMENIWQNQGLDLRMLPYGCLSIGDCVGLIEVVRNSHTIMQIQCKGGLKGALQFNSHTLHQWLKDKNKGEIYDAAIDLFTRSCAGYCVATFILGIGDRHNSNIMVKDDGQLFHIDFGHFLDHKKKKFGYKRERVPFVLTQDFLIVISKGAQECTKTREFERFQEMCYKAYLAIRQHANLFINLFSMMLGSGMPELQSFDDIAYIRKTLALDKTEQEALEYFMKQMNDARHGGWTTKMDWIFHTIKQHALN
Sequence of Dual specificity mitogen-activated protein kinase kinase 4 (Homo sapiens) (P45985 whole entry, the tested form may be a part): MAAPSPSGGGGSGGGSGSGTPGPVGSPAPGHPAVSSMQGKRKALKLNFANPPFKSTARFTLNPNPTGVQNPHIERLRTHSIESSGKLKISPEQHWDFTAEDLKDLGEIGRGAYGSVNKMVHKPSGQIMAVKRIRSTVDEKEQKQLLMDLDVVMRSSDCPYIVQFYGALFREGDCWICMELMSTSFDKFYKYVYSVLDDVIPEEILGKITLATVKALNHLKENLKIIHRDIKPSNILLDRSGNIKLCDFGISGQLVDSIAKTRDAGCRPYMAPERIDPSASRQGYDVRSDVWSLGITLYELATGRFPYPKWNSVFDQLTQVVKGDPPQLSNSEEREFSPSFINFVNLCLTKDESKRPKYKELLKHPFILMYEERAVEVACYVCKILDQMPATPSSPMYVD
Sequence of Tyrosine-protein kinase Fyn (Homo sapiens) (P06241 2-537 limits assumed): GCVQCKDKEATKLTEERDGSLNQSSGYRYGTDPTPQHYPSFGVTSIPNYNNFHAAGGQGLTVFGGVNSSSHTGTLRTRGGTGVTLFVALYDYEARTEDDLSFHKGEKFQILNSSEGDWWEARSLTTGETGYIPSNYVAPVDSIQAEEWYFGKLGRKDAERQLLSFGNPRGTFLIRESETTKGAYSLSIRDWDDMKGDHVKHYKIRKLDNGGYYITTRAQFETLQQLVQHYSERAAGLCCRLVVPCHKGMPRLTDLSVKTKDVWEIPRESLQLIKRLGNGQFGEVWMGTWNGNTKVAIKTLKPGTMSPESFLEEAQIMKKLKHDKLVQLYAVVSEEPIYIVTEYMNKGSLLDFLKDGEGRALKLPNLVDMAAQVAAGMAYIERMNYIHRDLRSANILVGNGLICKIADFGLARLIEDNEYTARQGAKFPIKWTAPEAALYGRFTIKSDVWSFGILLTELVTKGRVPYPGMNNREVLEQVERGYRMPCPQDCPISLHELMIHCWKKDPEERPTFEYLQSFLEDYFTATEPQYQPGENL

## Cc1nc2nc(Sc3ccccc3)cnc2cc1NC(=O)Nc1ccccc1
[1]
  AUC(0-t) at 8 h: 2.85 µM·h
[2]
  inhibition: 0%
[3]
  AUC(0-t) at 8 h: 19.9 µM·h
[4]
  inhibition: 0%
[5]
  IC50: 22 µM
[6]
  inhibition: 0%
[7]
  IC50: 3.1 µM
[8]
  inhibition: Active
[9]
  inhibition: inactive
[10]
  inhibition: Active
[11]
  inhibition: 5%
[12]
  Tmax: 1 h
[13]
  Activity: 0.2 g
[14]
  Activity: >50%
[15]
  inhibition: 0%
[16]
  inhibition: inactive
[17]
  inhibition: 13%
[18]
  inhibition: 0%
[19]
  inhibition: 6%
[20]
  Activity: Non-Toxic
[21]
  inhibition: inactive
[22]
  inhibition: 18%
[23]
  inhibition: inactive
[24]
  IC50: 5.7 µM
[25]
  inhibition: 16%
[26]
  inhibition: 0%
[27]
  inhibition: 8%
